In US20210017295A1, “BISPECIFIC BINDING AGENTS AND USES THEREOF” (MEMORIAL SLOAN KETTERING CANCER CENTER, priority 2018, published 2021):
Values joined by “and” are separate entries in the source; they are usually repeats but may differ in a detail not shown here. Identical values can stand only once. Like-named read-outs stand apart in the source and are kept apart here.

Tested on: s.c. HER2(+) BT-474 tumors
Type: in vivo, mouse
Details: 24 h p.i.
[1] = PRIT + CA 62.5 μg, 55.5 MBq (~300 pmol), mean ± SEM
[2] = PRIT + CA 62.5 μg, ~5.6 MBq (~30 pmol), mean ± SEM
[3] = PRIT, CA 0% (saline), mean ± SD
[4] = PRIT, CA 7.5% w/w 18.75 μg, mean ± SD
[5] = PRIT, CA 14% w/w 37.5 μg, mean ± SD
[6] = PRIT, CA 28% w/w 70 μg, mean ± SD

Nc1ccc(CC2CN(CC(=O)[O-])CCN(CC(=O)[O-])CCN(CC(=O)[O-])CCN2CC(=O)[O-])cc1.[177Lu+3] (centres unmarked) [^177Lu-DOTA-Bn]
^177Lu activity in Blood [1]: 0.29±0.05 % IA/g | ^177Lu activity in Bone [1]: 0.04 ± 0.01 % IA/g | ^177Lu activity in Heart [1]: 0.11 ± 0.02 % IA/g | ^177Lu activity in Kidneys [1]: 0.56±0.08 % IA/g | ^177Lu activity in Large Int. [1]: 0.20 ± 0.11 % IA/g | ^177Lu activity in Liver [1]: 0.33 ± 0.04 % IA/g | ^177Lu activity in Lungs [1]: 0.20 ± 0.02 % IA/g | ^177Lu activity in Muscle [1]: 0.04 ± 0.01 % IA/g | ^177Lu activity in Small Int. [1]: 0.05 ± 0.01 % IA/g | ^177Lu activity in Spleen [1]: 0.22 ± 0.07 % IA/g | ^177Lu activity in Stomach [1]: 0.04 ± 0.01 % IA/g | ^177Lu activity in Tumor [1]: 5.53±0.27 % IA/g | ^177Lu activity in Blood [2]: 0.28±0.09 % IA/g | ^177Lu activity in Bone [2]: 0.04 ± 0.01 % IA/g | ^177Lu activity in Heart [2]: 0.07 ± 0.02 % IA/g | ^177Lu activity in Kidneys [2]: 0.73±0.05 % IA/g | ^177Lu activity in Large Int. [2]: 0.18 ± 0.01 % IA/g | ^177Lu activity in Liver [2]: 0.27 ± 0.07 % IA/g | ^177Lu activity in Lungs [2]: 0.20 ± 0.05 % IA/g | ^177Lu activity in Muscle [2]: 0.06 ± 0.01 % IA/g | ^177Lu activity in Small Int. [2]: 0.05 ± 0.01 % IA/g | ^177Lu activity in Spleen [2]: 0.60 ± 0.21 % IA/g | ^177Lu activity in Stomach [2]: 0.06 ± 0.01 % IA/g | ^177Lu activity in Tumor [2]: 7.58±0.78 % IA/g | ^177Lu activity in Blood (PRIT + no CA, mean ± SEM): 4.95 ± 0.58 % IA/g | ^177Lu activity in Bone (PRIT + no CA, mean ± SEM): 0.39 ± 0.08 % IA/g | ^177Lu activity in Heart (PRIT + no CA, mean ± SEM): 1.14 ± 0.14 % IA/g | ^177Lu activity in Kidneys (PRIT + no CA, mean ± SEM): 2.31 ± 0.26 % IA/g | ^177Lu activity in Large Int. (PRIT + no CA, mean ± SEM): 0.58 ± 0.06 % IA/g | ^177Lu activity in Liver (PRIT + no CA, mean ± SEM): 1.85 ± 0.15 % IA/g | ^177Lu activity in Lungs (PRIT + no CA, mean ± SEM): 2.11 ± 0.23 % IA/g | ^177Lu activity in Muscle (PRIT + no CA, mean ± SEM): 0.38 ± 0.04 % IA/g | ^177Lu activity in Small Int. (PRIT + no CA, mean ± SEM): 0.58 ± 0.06 % IA/g | ^177Lu activity in Spleen (PRIT + no CA, mean ± SEM): 1.00 ± 0.11 % IA/g | ^177Lu activity in Stomach (PRIT + no CA, mean ± SEM): 0.34 ± 0.04 % IA/g | ^177Lu activity in Tumor (PRIT + no CA, mean ± SEM): 19.94±1.7 % IA/g and 19.94 ± 1.77 % IA/g | Tumor-to-tissue ratio, Blood [3]: 4.0±1.2 | Tumor-to-tissue ratio, Bone [3]: 50.8 ± 22.7 | Tumor-to-tissue ratio, Heart [3]: 17.5 ± 5.4 | Tumor-to-tissue ratio, Kidneys [3]: 8.6 ± 2.5 | Tumor-to-tissue ratio, Large Int. [3]: 34.4 ± 9.3 | Tumor-to-tissue ratio, Liver [3]: 10.8 ± 2.6 | Tumor-to-tissue ratio, Lungs [3]: 9.5 ± 2.6 | Tumor-to-tissue ratio, Muscle [3]: 52.1 ± 15.2 | Tumor-to-tissue ratio, Small Int. [3]: 34.5 ± 9.3 | Tumor-to-tissue ratio, Spleen [3]: 19.9 ± 5.5 | Tumor-to-tissue ratio, Stomach [3]: 59.1 ± 18.8 | ^177Lu activity in Blood [3]: 4.95±1.17 % IA/g | ^177Lu activity in Bone [3]: 0.39 ± 0.16 % IA/g | ^177Lu activity in Heart [3]: 1.14 ± 0.29 % IA/g | ^177Lu activity in Kidneys [3]: 2.31 ± 0.52 % IA/g | ^177Lu activity in Large Int. [3]: 0.58 ± 0.12 % IA/g | ^177Lu activity in Liver [3]: 1.85 ± 0.30 % IA/g | ^177Lu activity in Lungs [3]: 2.11 ± 0.45 % IA/g | ^177Lu activity in Muscle [3]: 0.38 ± 0.09 % IA/g | ^177Lu activity in Small Int. [3]: 0.58 ± 0.12 % IA/g | ^177Lu activity in Spleen [3]: 1.00 ± 0.21 % IA/g | ^177Lu activity in Stomach [3]: 0.34 ± 0.09 % IA/g | ^177Lu activity in Tumor [3]: 19.94±3.54 % IA/g | Tumor-to-tissue ratio, Blood [4]: 7.1 ± 4.1 | Tumor-to-tissue ratio, Bone [4]: 80.6 ± 61.9 | Tumor-to-tissue ratio, Heart [4]: 16.0 ± 9.6 | Tumor-to-tissue ratio, Kidneys [4]: 9.7 ± 6.0 | Tumor-to-tissue ratio, Large Int. [4]: 29.9 ± 10.7 | Tumor-to-tissue ratio, Liver [4]: 15.0 ± 7.8 | Tumor-to-tissue ratio, Lungs [4]: 15.8 ± 7.9 | Tumor-to-tissue ratio, Muscle [4]: 67.5 ± 20.1 | Tumor-to-tissue ratio, Small Int. [4]: 33.7 ± 19.2 | Tumor-to-tissue ratio, Spleen [4]: 12.6 ± 3.3 | Tumor-to-tissue ratio, Stomach [4]: 59.2 ± 17.0 | ^177Lu activity in Blood [4]: 1.03 ± 0.58 % IA/g | ^177Lu activity in Bone [4]: 0.09 ± 0.07 % IA/g | ^177Lu activity in Heart [4]: 0.45 ± 0.27 % IA/g | ^177Lu activity in Kidneys [4]: 0.75 ± 0.46 % IA/g | ^177Lu activity in Large Int. [4]: 0.24 ± 0.08 % IA/g | ^177Lu activity in Liver [4]: 0.49 ± 0.25 % IA/g | ^177Lu activity in Lungs [4]: 0.46 ± 0.23 % IA/g | ^177Lu activity in Muscle [4]: 0.11 ± 0.03 % IA/g | ^177Lu activity in Small Int. [4]: 0.22 ± 0.12 % IA/g | ^177Lu activity in Spleen [4]: 0.58 ± 0.14 % IA/g | ^177Lu activity in Stomach [4]: 0.12 ± 0.03 % IA/g | ^177Lu activity in Tumor [4]: 7.26 ± 0.55 % IA/g | Tumor-to-tissue ratio, Blood [5]: 13.1 ± 5.1 | Tumor-to-tissue ratio, Bone [5]: 159.0 ± 66.7 | Tumor-to-tissue ratio, Heart [5]: 45.1 ± 18.9 | Tumor-to-tissue ratio, Kidneys [5]: 8.7 ± 3.2 | Tumor-to-tissue ratio, Large Int. [5]: 18.9 ± 10.9 | Tumor-to-tissue ratio, Liver [5]: 14.6 ± 5.3 | Tumor-to-tissue ratio, Lungs [5]: 19.6 ± 7.4 | Tumor-to-tissue ratio, Muscle [5]: 84.5 ± 37.6 | Tumor-to-tissue ratio, Small Int. [5]: 39.8 ± 21.2 | Tumor-to-tissue ratio, Spleen [5]: 9.8 ± 4.4 | Tumor-to-tissue ratio, Stomach [5]: 50.1 ± 20.7 | ^177Lu activity in Blood [5]: 0.52 ± 0.08 % IA/g | ^177Lu activity in Bone [5]: 0.04 ± 0.01 % IA/g | ^177Lu activity in Heart [5]: 0.15 ± 0.03 % IA/g | ^177Lu activity in Kidneys [5]: 0.78 ± 0.09 % IA/g | ^177Lu activity in Large Int. [5]: 0.36 ± 0.16 % IA/g | ^177Lu activity in Liver [5]: 0.46 ± 0.04 % IA/g | ^177Lu activity in Lungs [5]: 0.35 ± 0.05 % IA/g | ^177Lu activity in Muscle [5]: 0.08 ± 0.02 % IA/g | ^177Lu activity in Small Int. [5]: 0.17 ± 0.07 % IA/g | ^177Lu activity in Spleen [5]: 0.69 ± 0.20 % IA/g | ^177Lu activity in Stomach [5]: 0.14 ± 0.03 % IA/g | ^177Lu activity in Tumor [5]: 6.76 ± 2.39 % IA/g | Tumor-to-tissue ratio, Blood [6]: 25.6 ± 13.9 | Tumor-to-tissue ratio, Bone [6]: 63.5 ± 97.0 | Tumor-to-tissue ratio, Heart [6]: 63.5 ± 35.2 | Tumor-to-tissue ratio, Kidneys [6]: 9.4 ± 4.3 | Tumor-to-tissue ratio, Large Int. [6]: 37.7 ± 18.5 | Tumor-to-tissue ratio, Liver [6]: 21.2 ± 9.7 | Tumor-to-tissue ratio, Lungs [6]: 28.5 ± 14.3 | Tumor-to-tissue ratio, Muscle [6]: 84.6 ± 45.2 | Tumor-to-tissue ratio, Small Int. [6]: 99.7 ± 47.9 | Tumor-to-tissue ratio, Spleen [6]: 9.6 ± 4.9 | Tumor-to-tissue ratio, Stomach [6]: 133.0 ± 76.7 | ^177Lu activity in Blood [6]: 0.27 ± 0.08 % IA/g | ^177Lu activity in Bone [6]: 0.11 ± 0.16 % IA/g | ^177Lu activity in Heart [6]: 0.11 ± 0.04 % IA/g
